In US6737383B1, “Herbicidal oxadiazolidines” (priority 1999, dated 2004):

Assays:
[1] = tested on: bedstraw; test: Test B pre/postemergence bedstraw; assay type: in vivo, Galium aparine; settings: Preemergence
Outline: (§1)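 Response is a visual 0-to-10 score relative to untreated plants, where 0 means no effect and 10 means complete control, taken twelve to sixteen days after application. Treatments went onto soil at planting and onto foliage of 1- to 4-leaf plants, using a surfactant-containing non-phytotoxic solvent.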

[2] = tested on: bamyardgrass; test: Test B flood test barnyardgrass; assay type: in vivo, Echinochloa crus-galli
Outline: (§2)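 Plants were grown to the 2-leaf stage before treatment with test chemical, then held in a greenhouse for twelve to sixteen days. Injury was visually rated against untreated controls on a 0–10 scale, where 0 is no effect and 10 is complete control.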

[3] = tested on: purple nutsedge; test: Test B pre/postemergence purple nutsedge; assay type: in vivo, Cyperus rotundus; settings: Preemergence, scale of 0 to 10 where 0 is no effect and 10 is complete control
Outline: as §1

[4] = tested on: cocklebur; test: Test B pre/postemergence cocklebur; assay type: in vivo, Xanthium strumarium; settings: Preemergence
Outline: as §1

[5] = tested on: surinam grass; test: Test B pre/postemergence surinam grass; assay type: in vivo, Brachiaria decumbens; settings: Preemergence
Outline: as §1

[6] = tested on: sugar beet; test: Test B pre/postemergence sugar beet; assay type: in vivo, Beta vulgaris; settings: Preemergence, scale of 0 to 10 where 0 is no effect and 10 is complete control
Outline: as §1

[7] = tested on: wild oat; test: Test B pre/postemergence wild oat; assay type: in vivo, Avena fatua; settings: Preemergence, Rate 125 g/ha; scale of 0 to 10 where 0 is no effect and 10 is complete control
Outline: as §1

[8] = tested on: wheat; test: Test B pre/postemergence wheat; assay type: in vivo, Triticum aestivum; settings: Preemergence, scale of 0 to 10 where 0 is no effect and 10 is complete control
Outline: as §1

[9] = tested on: rice; test: Test B flood test rice; assay type: in vivo, Oryza sativa
Outline: as §2

[10] = tested on: giant foxtail; test: Test B pre/postemergence giant foxtail; assay type: in vivo, Setaria faberii; settings: Preemergence, scale of 0 to 10 where 0 is no effect and 10 is complete control
Outline: as §1

[11] = tested on: blackgrass; test: Test B pre/postemergence blackgrass; assay type: in vivo, Alopecurus myosuroides; settings: Preemergence
Outline: as §1

[12] = tested on: duck salad; test: Test B flood test duck salad; assay type: in vivo, Heteranthera limosa
Outline: as §2

[13] = tested on: rape; test: Test B pre/postemergence rape; assay type: in vivo, Brassica napus; settings: Preemergence, scale of 0 to 10 where 0 is no effect and 10 is complete control
Outline: as §1

[14] = tested on: crabgrass; test: Test B pre/postemergence crabgrass; assay type: in vivo, Digitaria sanguinalis; settings: Preemergence
Outline: as §1

[15] = tested on: pigweed; test: Test B pre/postemergence pigweed; assay type: in vivo, Amaranthus retroflexus; settings: Preemergence, scale of 0 to 10 where 0 is no effect and 10 is complete control
Outline: as §1

[16] = tested on: smallflower flatsedge; test: Test B flood test smallflower flatsedge; assay type: in vivo, Cyperus difformis
Outline: as §2

[17] = tested on: corn; test: Test B pre/postemergence corn; assay type: in vivo, Zea mays; settings: Preemergence
Outline: as §1

[18] = tested on: soybean; test: Test B pre/postemergence soybean; assay type: in vivo, Glycine max; settings: Preemergence, scale of 0 to 10 where 0 is no effect and 10 is complete control
Outline: as §1

[19] = tested on: velvetleaf; test: Test B pre/postemergence velvetleaf; assay type: in vivo, Abutilon theophrasti; settings: Preemergence, scale of 0 to 10 where 0 is no effect and 10 is complete control
Outline: as §1

[20] = tested on: morningglory; test: Test B pre/postemergence morningglory; assay type: in vivo, Ipomoea hederacea; settings: Preemergence, scale of 0 to 10 where 0 is no effect and 10 is complete control
Outline: as §1

[21] = Rate 62 g/ha, scale of 0 to 10 where 0 is no effect and 10 is complete control
[22] = Rate 125 g/ha, scale of 0 to 10 where 0 is no effect and 10 is complete control
[23] = Rate 250 g/ha, scale 0 to 10 (0 no effect, 10 complete control)
[24] = Rate 500 g/ha, scale of 0 to 10 where 0 is no effect and 10 is complete control
[25] = Rate 62 g/ha, flood test species, Pre-emergence, visual evaluation after twelve to sixteen days
[26] = Rate 125 g/ha, under heading Pre-emergence, flood test species, visual evaluation after twelve to sixteen days
[27] = Rate 250 g/ha, Pre-emergence (flood test species), scale 0 to 10, 0 is no effect, 10 is complete control
[28] = Rate 500 g/ha, Pre-emergence section of Table B, 0 to 10 scale (0 no effect, 10 complete control)

CC(C)N(C(=O)n1oc(=O)n(C(C)C2CCC2)c1=O)c1ccc(F)cc1F (stereo not drawn) [Compound 702]
Bedstraw plant response rating [1, 21]: 0 | Plant response rating, Bedstraw [1, 22]: 0 | Plant response rating, Bedstraw [1, 23]: 0 | Plant response rating, Bedstraw [1, 24]: 0 | Plant response rating, Barnyardgrass (0 to 10 scale, 0 is no effect, 10 is complete control) [2, 25]: 0 | Barnyardgrass plant response rating (0 to 10 scale, 0 is no effect, 10 is complete control) [2, 26]: 0 | Barnyardgrass plant response rating [2, 27]: 0 | Barnyardgrass plant response rating [2, 28]: 0 | Nutsedge plant response rating ([3]; Rate 62 g/ha): 0 | Plant response rating, Nutsedge ([3]; Rate 125 g/ha): 0 | Cocklebur plant response rating [4, 21]: 0 | Plant response rating, Cocklebur [4, 22]: 0 | Plant response rating, Cocklebur [4, 23]: 0 | Plant response rating, Cocklebur [4, 24]: 0 | B. signalgrass plant response rating [5, 21]: 0 | Plant response rating, B. signalgrass [5, 22]: 2 | Plant response rating, B. signalgrass [5, 23]: 2 | Plant response rating, B. signalgrass [5, 24]: 8 | Sugarbeets plant response rating ([6]; Rate 62 g/ha): 0 | Plant response rating, Sugarbeets ([6]; Rate 125 g/ha): 0 | Plant response rating, Wild oats [7]: 0 | Wheat plant response rating ([8]; Rate 62 g/ha): 0 | Plant response rating, Wheat ([8]; Rate 125 g/ha): 0 | Plant response rating, Rice (0 to 10 scale, 0 is no effect, 10 is complete control) [9, 25]: 0 | Rice plant response rating (0 to 10 scale, 0 is no effect, 10 is complete control) [9, 26]: 0 | Rice plant response rating [9, 27]: 0 | Rice plant response rating [9, 28]: 0 | Giant foxtail plant response rating ([10]; Rate 62 g/ha): 10 | Plant response rating, Giant foxtail ([10]; Rate 125 g/ha): 10 | Blackgrass plant response rating [11, 21]: 2 | Plant response rating, Blackgrass [11, 22]: 2 | Plant response rating, Blackgrass [11, 23]: 9 | Plant response rating, Blackgrass [11, 24]: 10 | Plant response rating, Ducksalad (0 to 10 scale, 0 is no effect, 10 is complete control) [12, 25]: 0 | Ducksalad plant response rating (0 to 10 scale, 0 is no effect, 10 is complete control) [12, 26]: 0 | Ducksalad plant response rating [12, 27]: 0 | Ducksalad plant response rating [12, 28]: 0 | Rape plant response rating ([13]; Rate 62 g/ha): 0 | Plant response rating, Rape ([13]; Rate 125 g/ha): 0 | Crabgrass plant response rating [14, 21]: 9 | Plant response rating, Crabgrass [14, 22]: 10 | Plant response rating, Crabgrass [14, 23]: 10 | Redroot pigweed plant response rating ([15]; Rate 62 g/ha): 2 | Plant response rating, Redroot pigweed ([15]; Rate 125 g/ha): 5 | Plant response rating, S. Flatsedge (0 to 10 scale, 0 is no effect, 10 is complete control) [16, 25]: 0 | S. Flatsedge plant response rating (0 to 10 scale, 0 is no effect, 10 is complete control) [16, 26]: 0 | S. Flatsedge plant response rating [16, 27]: 0 | S. Flatsedge plant response rating [16, 28]: 0 | Corn plant response rating [17, 21]: 0 | Plant response rating, Corn [17, 22]: 0 | Plant response rating, Corn [17, 23]: 0 | Soybean plant response rating ([18]; Rate 62 g/ha): 0 | Plant response rating, Soybean ([18]; Rate 125 g/ha): 0 | Velvetleaf plant response rating ([19]; Rate 62 g/ha): 0 | Plant response rating, Velvetleaf ([19]; Rate 125 g/ha): 0 | Morningglory plant response rating ([20]; Rate 62 g/ha): 0 | Plant response rating, Morningglory ([20]; Rate 125 g/ha): 0
